# Data reported in ChEMBL document CHEMBL4043266, “Pentacyclic triterpenes as α-glucosidase and α-amylase inhibitors: Structure-activity relationships and the synergism with acarbose” (Bioorg Med Chem Lett, 2017).
# Experiments:
# [1] = target: T1, Pancreatic alpha-amylase (Sus scrofa) (UniProt P00690)
# T1 sequence (whole entry): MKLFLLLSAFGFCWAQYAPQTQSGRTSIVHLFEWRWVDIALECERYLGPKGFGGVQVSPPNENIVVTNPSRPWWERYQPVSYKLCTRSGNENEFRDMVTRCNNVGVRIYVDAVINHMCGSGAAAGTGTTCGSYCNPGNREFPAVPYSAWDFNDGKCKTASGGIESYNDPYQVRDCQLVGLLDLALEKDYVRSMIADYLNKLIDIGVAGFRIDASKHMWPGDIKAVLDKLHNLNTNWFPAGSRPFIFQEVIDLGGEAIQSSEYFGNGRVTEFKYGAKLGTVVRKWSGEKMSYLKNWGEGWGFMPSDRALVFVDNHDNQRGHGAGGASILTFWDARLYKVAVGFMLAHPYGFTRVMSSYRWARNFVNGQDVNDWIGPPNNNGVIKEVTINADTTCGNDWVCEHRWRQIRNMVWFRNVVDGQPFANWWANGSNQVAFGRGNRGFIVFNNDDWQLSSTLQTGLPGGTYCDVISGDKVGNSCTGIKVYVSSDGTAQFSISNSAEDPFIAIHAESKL
# Description: Non-competitive inhibition of porcine pancreatic alpha-amylase assessed as inhibitor-enzyme-substrate complex using starch as substrate by Lineweaver-Burk plot analysis
# [2] = target: T1, Pancreatic alpha-amylase (Sus scrofa); remark: listed apart in the source
# Description: Non-competitive inhibition of porcine pancreatic alpha-amylase assessed as inhibitor-enzyme complex using starch as substrate by Lineweaver-Burk plot analysis
smiles,measurement,setting,value
C[C@H]1[C@H](C)CC[C@]2(C(=O)O)CC[C@]3(C)C(=CC[C@@H]4[C@@]5(C)C[C@@H](O)[C@H](O)C(C)(C)[C@@H]5CC[C@]43C)[C@H]12,Kis,[1],25.6 µM
same,Kii,[2],28.3 µM
